# Test results reported in patent US10980764B1, “Exogenous ketone supplements for reducing anxiety-related behavior” (priority 2016, dated 2021).
# Tests used:
# [1] = Blood βHB and glucose levels (PRECISION XTRA), SPD rats, Study 1; conditions: for Glucose, Mean Diff., Tukey's multiple comparisons test (Compare S-D to WagRij) / βHB, Mean Diff., Tukey's multiple comparisons test (Compare S-D to WagRij): S-D (SPD) rats, own Baseline minus 7 days of the same group; for Blood glucose levels: at 24 hours; for Blood βHB (90 days), Mean Diff., Tukey's multiple comparisons test: chronic feeding, After:SD (control) minus After:treated group
# Experimental: In order to familiarize the animals to the intragastric gavage method, tap water was gavaged for 5 days before ketone supplementation. A total of 48 male SPD rats were fed for 83 days with either standard rodent chow (SD)+water application (˜25 g/kg b.w. water/day) (SD/control group; n=9) or SD+ketone supplementation by gavage.
# In the chronic feeding study, blood βHB and glucose levels were measured 24 hours before the 1st day of ketone treatments (baseline levels) and after the 13th week of ketone treatment. In the 7-day oral gavage studies, blood βHB and glucose levels were measured 24 hours before the 1st day of ketone treatments (baseline levels; SPD and WAG/Rij rats) and after the 1st day (SPD rats) and the 7th day (SPD and WAG/Rij rats) of ketone gavaging. In acute study, blood βHB and glucose levels were measured 40 min after ketone treatment. Whole blood samples (10 μL) were taken from the saphenous vein for analysis of blood glucose (mg/dl) and βHB (mmol/1) levels with the commercially available glucose and ketone monitoring system PRECISION XTRA™ (ABBOTT Laboratories, Abbott Park, Ill., USA). The PRECISION XTRA™ ketone monitoring system only measures βHB blood levels; therefore, total blood ketone levels would be higher than measured.
# All data are presented as the mean±standard error of the mean (SEM). The effects of ketone supplementations on anxiety level were compared, as well as on blood βHB and glucose levels to control or/and baseline levels. Data analysis was performed using GraphPad PRISM version 6.0a. Results were considered significant when p<0.05. Significance was determined by unpaired t-test. Blood ketone, blood glucose, and body weight change were compared using a two-way ANOVA with Tukey's multiple comparisons test and unpaired t-test.
# [2] = Blood βHB and glucose ~40 min after single dose, 1 year old SPD rats, Study 2; assay type: in vivo, rat; conditions: right after 5 min EPM test, compared to control group
# Experimental: One year old SPD rats were gavaged and EPM test was performed 30 min after administration. Treatment groups BD, KE, KEMCT, KSMCT, KEKS.
# Another study was carried out using substantially similar methodologies and procedures as in Study 1, specifically using the EPM test to evaluate anxiety-related behavior in 1-year old SD rats when administered ketone supplementation versus control.
# [3] = test system: WAG/Rij rats; assay: EPM after 7 days oral gavage, WAG/Rij rats, Study 3; assay type: in vivo, rat; conditions: 7 days gavage ~2.5 g/kg b.w./day
# Experimental: Generally, exogenous ketone supplementation was tested by adding to food and feeding chronically for 83 days in SPD rats and administering sub-chronically for 7 days in both rat models by daily intragastric gavage bolus, followed by assessment of anxiety measures on EPM. The groups included standard diet (SD) or SD+ketone supplementation.
# EPM (Coulbourn Instruments) was used to assess anxiety-related behavior of the rats after 83 days of chronic feeding or after 7 days of oral gavage. EPM experiments were carried out under non-stress conditions (in dimly lit and quiet room) between 12.00 and 14.00 hours.
# The rats were transferred in their home cage to the experimental room 30 min prior to beginning the experiment. Briefly, rats were placed in the intersection of the four arms of the EPM, facing the open arm opposite to where the experimenter was and their behavior was recorded for 5 minutes. The amount of time spent and number of entries made on the open arms, closed arms and the center zones were video recorded. Latency to entry into the closed arms and the distance travelled in each zones was also measured in chronically treated SPD rats. […] At the end of the 5-minute test, the rats were removed from the maze and placed back into their home cage. The maze was cleaned with 70% alcohol and after it with tap water and dried with paper towel between rats. […]
# [4] = Blood βHB and glucose levels (Precision Xtra), SPD rats, Study 3
# From the text: A total of 48 male SPD rats were fed for 83 days with either standard rodent chow (2018 Teklad Global 18% Protein Rodent Diet (#2018), Harlan) (SD/control; n=9) or SD+ketone supplementation. […] Higher dose was used for chronic administration, as the rats were consuming food-integrated ketone supplementation throughout the day, not at a single time point.
# In order to familiarize the animals to the intragastric gavage method, water was gavaged for 5 days prior to ketone supplementation.
# (§1) In the chronic feeding study, blood βHB and glucose levels were measured 24 hours before the 1st day of ketone treatments (baseline levels) and at the 13th week after the EPM experiment. In the 7-day oral gavage studies, blood βHB and glucose levels were measured 24 hours before the 1st day of ketone treatments (baseline levels; SPD and WAG/Rij rats), 24 hours after the first gavage, and 60 min after gavage on the 7th day (SPD and WAG/Rij rats). Whole blood samples (10 μL) were taken from the saphenous vein for analysis of blood glucose (mg/dl) and βHB (mmol/1) levels with the commercially available glucose and ketone (βHB) monitoring system Precision Xtra™ (Abbott Laboratories, Abbott Park, Ill., USA).
# (§2) All data are presented as the mean±standard error of the mean (SEM). The effects of ketone supplementations on anxiety-related behavior were compared, as well as on blood βHB and glucose levels to control or/and baseline levels. Data analysis was performed using GraphPad PRISM version 6.0a. Results were considered significant when p<0.05. Significance was determined by one-way ANOVA with Fisher s LSD test for the behavioral data. Blood ketone, blood glucose, and body weight change were compared using a two-way ANOVA with Tukey's multiple comparisons test.
# [5] = Blood βHB and glucose levels (Precision Xtra), WAG/Rij rats, Study 3
# Experimental: For the sub-chronic gavage administration, the gavage dose was used that induced desired elevation of blood ketone based on the current inventors' previous studies (Kesl et al. 2016).
# as §1, §2
# [6] = Body weight, SPD rats, Study 3; assay type: in vivo, rat; conditions: compared to control
# Experimental: The body weight of all animals was recorded before the first ketone treatment (before) and on the last day of the ketone treatment (after).
# (§3) Results were considered significant when p<0.05.
# [7] = Blood βHB and glucose compared between SPD and WAG/Rij rats, Study 1; assay type: in vivo, rat; conditions: for Glucose, Mean Diff., Tukey's multiple comparisons test (Compare S-D to WagRij) / βHB, Mean Diff., Tukey's multiple comparisons test (Compare S-D to WagRij): 7 days:S-D minus 7 days:WR, same supplement (5 vs 2.5 g/kg/day); for βHB levels in WAG/Rij rats compared to SPD rats: before (baseline) and after sub-chronic ketone supplementation
# [8] = Blood βHB and glucose compared between the two animal models, Study 3; assay type: in vivo, rat; conditions: after sub-chronic ketone supplementation (7 days; ~2.5 vs ~5 g/kg b.w./day)
# From the text: as §3
# [9] = SPD rats, 7 days of gavaging, compared to baseline
# [10] = SPD rats, after 83 days of chronic feeding, compared to control
# [11] = SPD rats, 24h:SD (control) minus 24h:treated group
compound,measurement,setting,value
"CC(=O)CC(=O)OCCC(C)OC(=O)CC(C)=O (centres unmarked) [KE, 1,3-butanediol-acetoacetate diester]","Glucose, Mean Diff., Tukey's multiple comparisons test (Compare S-D to WagRij)",[1],-1.841 mg/dL
same,"βHB, Mean Diff., Tukey's multiple comparisons test (Compare S-D to WagRij)",[1],−0.1389 mmol/1
same,Blood βHB levels,"[1]; SPD rats, 24 hours after a single gavage, compared to baseline",elevated
same,Blood βHB,[1]; [9],did not change
same,Blood βHB,[1]; [10],elevated
same,Blood glucose levels,"[1]; SPD rats, compared to baseline",lower
same,Blood glucose levels,"[1]; SPD rats, compared to control group",lower
same,"Blood βHB (90 days), Mean Diff., Tukey's multiple comparisons test",[1]; SPD rats,−0.2978 mmol/1
same,Blood glucose,"[1]; SPD rats, from baseline to 7 days",did not change
same,"Blood Glucose (7 days), Mean Diff., Tukey's multiple comparisons test",[1]; [11],33.11 mg/dL
same,"Blood βHB (7 days), Mean Diff., Tukey's multiple comparisons test",[1]; [11],−0.5235 mmol/1
same,"Blood Glucose (7 days), Mean Diff., Tukey's multiple comparisons test","[1]; SPD rats, 24h minus 7days of the same group",-23.02 mg/dL
same,"Blood Glucose (7 days), Mean Diff., Tukey's multiple comparisons test","[1]; SPD rats, own Baseline minus 24h of the same group",21.18 mg/dL
same,Blood glucose level,[2],significantly lower
same,Entries to open arms,[3]; compared to control,less entries
same,Time spent in the center,[3]; compared to control (SD),more time
same,Blood βHB levels,"[4]; SPD rats, 24 hours after a single gavage, compared to control",elevated
same,Blood glucose,"[4]; SPD rats, after 13 weeks of chronic feeding",lower
same,Blood βHB levels,[4]; [10],significantly elevated
same,Blood glucose levels,"[4]; SPD rats, sub-chronic, at 24 hours, compared to control",lower
same,Glucose levels,"[5]; WAG/Rij rats, after 24h, compared to baseline levels",lower
same,Glucose levels,"[5]; WAG/Rij rats, after 7 days compared to the level at 24h",elevated
same,Blood βHB,"[5]; WAG/Rij rats, after 7 days of gavage, compared to baseline, 24 hours and control",elevated
same,Body weight,[6]; after 7 days of treatment,lower
same,Body weight,[6]; after chronic feeding,lower
same,"Glucose, Mean Diff., Tukey's multiple comparisons test (Compare S-D to WagRij)",[7],27.5 mg/dL
same,"βHB, Mean Diff., Tukey's multiple comparisons test (Compare S-D to WagRij)",[7],−0.9653 mmol/1
same,βHB levels in WAG/Rij rats compared to SPD rats,[7],Higher
same,βHB levels in WAG/Rij rats compared to SPD rats,[8],Higher
Na^+/K^+-βHB mineral salt [KS],"Glucose, Mean Diff., Tukey's multiple comparisons test (Compare S-D to WagRij)",[1],-0.3258 mg/dL
same,"βHB, Mean Diff., Tukey's multiple comparisons test (Compare S-D to WagRij)",[1],−0.4455 mmol/1
same,Blood βHB,[1]; [9],significant difference
same,Blood βHB,[1]; [10],elevated
same,Blood glucose levels,"[1]; SPD rats, compared to baseline",lower
same,"Blood βHB (90 days), Mean Diff., Tukey's multiple comparisons test",[1]; SPD rats,−0.3653 mmol/1
same,"Blood βHB (7 days), Mean Diff., Tukey's multiple comparisons test","[1]; SPD rats, 7days:SD (control) minus 7days:treated group",−0.547 mmol/1
same,Blood βHB,"[4]; rat, in vivo",elevated
same,Blood βHB,"[5]; rat, in vivo",elevated
same,"Glucose, Mean Diff., Tukey's multiple comparisons test (Compare S-D to WagRij)",[7],15.28 mg/dL
same,"βHB, Mean Diff., Tukey's multiple comparisons test (Compare S-D to WagRij)",[7],−0.5614 mmol/1
same,βHB levels in WAG/Rij rats compared to SPD rats,[7],Higher
